{
  "source": "patent US20020013357A1",
  "about": "“Valdecoxib compositions” (priority 1999, published 2002)",
  "origin": "cited, not measured here",
  "data": [
    {"smiles": "Cc1onc(-c2ccccc2)c1-c1ccc(S(N)(=O)=O)cc1", "note": "[Valdecoxib, 4-(5-methyl-3-phenyl-4-isoxazolyl)benzenesulfonamide]", "values": [
      {"measurement": "solubility in water", "result": "extremely low solubility in water"}
    ]}
  ]
}
